Data on 24 compounds can be found in ChEMBL document CHEMBL5625223 (Eur J Med Chem, 2023).

Structures are written as SMILES.

One assay has as its target T1, Adenosine receptor A3 (Homo sapiens, UniProt P0DMS8).
T1 sequence (P0DMS8 whole entry): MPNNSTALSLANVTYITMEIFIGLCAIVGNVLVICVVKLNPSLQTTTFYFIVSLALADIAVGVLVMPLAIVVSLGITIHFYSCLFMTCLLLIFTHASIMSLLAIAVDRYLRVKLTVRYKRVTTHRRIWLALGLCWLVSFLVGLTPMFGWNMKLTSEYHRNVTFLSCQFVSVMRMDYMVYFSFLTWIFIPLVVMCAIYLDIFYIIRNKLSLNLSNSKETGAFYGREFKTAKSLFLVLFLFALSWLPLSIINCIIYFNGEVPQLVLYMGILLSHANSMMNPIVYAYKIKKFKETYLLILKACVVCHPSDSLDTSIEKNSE
The experiment in a line: Displacement of […] from human A3AR expressed in HEK cells assessed as inhibition constant. Format: cell-based.

Assay [1] deals with T2, 5-hydroxytryptamine receptor 2C (Homo sapiens) (UniProt P28335).
T2 sequence (whole entry): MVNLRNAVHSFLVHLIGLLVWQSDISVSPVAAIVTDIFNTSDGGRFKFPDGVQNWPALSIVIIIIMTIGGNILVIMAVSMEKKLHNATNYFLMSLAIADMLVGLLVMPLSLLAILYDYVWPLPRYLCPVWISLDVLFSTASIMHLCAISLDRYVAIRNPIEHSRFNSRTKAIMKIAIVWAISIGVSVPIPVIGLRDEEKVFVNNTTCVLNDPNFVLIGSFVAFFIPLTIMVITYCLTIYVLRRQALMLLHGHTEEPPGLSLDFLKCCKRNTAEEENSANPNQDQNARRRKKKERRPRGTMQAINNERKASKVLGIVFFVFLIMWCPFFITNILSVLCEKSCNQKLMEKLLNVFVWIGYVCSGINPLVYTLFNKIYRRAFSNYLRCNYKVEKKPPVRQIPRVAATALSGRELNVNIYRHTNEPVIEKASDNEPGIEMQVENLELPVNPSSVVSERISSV
Description: Displacement of [3H]-Mesulergine from human 5-HT2C expressed in Flp-In-T-REx-293 cells at 10 uM incubated for 1 hr relative to control. Format: cell-based.

A further assay deals with T3, Adenosine receptor A1 (Homo sapiens, UniProt P30542).
T3 sequence (P30542 whole entry): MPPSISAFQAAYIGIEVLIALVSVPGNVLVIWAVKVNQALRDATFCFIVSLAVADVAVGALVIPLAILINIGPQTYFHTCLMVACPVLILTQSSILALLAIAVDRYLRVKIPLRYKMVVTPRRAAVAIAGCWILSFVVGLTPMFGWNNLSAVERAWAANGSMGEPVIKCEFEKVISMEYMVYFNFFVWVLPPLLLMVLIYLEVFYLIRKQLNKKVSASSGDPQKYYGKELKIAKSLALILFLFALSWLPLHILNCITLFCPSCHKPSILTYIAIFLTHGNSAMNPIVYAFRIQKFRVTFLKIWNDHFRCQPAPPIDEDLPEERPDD
Description: Displacement of […] from human A1AR expressed in Flp-In-T-REx-293 cells assessed as inhibition constant. Type of assay: cell-based.

In assay [2] the target is T4, 5-hydroxytryptamine receptor 2A (Homo sapiens, UniProt P28223). The experiment in a line: Displacement of [3H]ketanserin from human 5-HT2A receptor expressed in HEK293 cells at 10 uM incubated for 1 hr relative to control. Type of assay: cell-based.
For assay [3], the target named is T5, 5-hydroxytryptamine receptor 2B (Homo sapiens, UniProt P41595). Description: Displacement of [3H]-LSD from human 5-HT2B receptor expressed in HEK cells at 10 uM incubated for 1 hr relative to control. Type of assay: cell-based.
The target of assay [4] is Adenosine receptor A2a (Homo sapiens) (UniProt P29274). The experiment in a line: Displacement of […] from human A2AR expressed in HEK cells at 10 uM relative to control. Format: cell-based.
Assay [5] has as its target T5, 5-hydroxytryptamine receptor 2B. Description: Displacement of [3H]-LSD from human 5-HT2B receptor expressed in HEK cells assessed as inhibition constant incubated for 1 hr. Format: cell-based.
The target in assay [6] is T6, 5-hydroxytryptamine receptor 2C (Homo sapiens, UniProt P28335).
T6 sequence (P28335 whole entry): T2 sequence (whole entry)
The experiment in a line: Displacement of [3H]-Mesulergine from human 5-HT2C expressed in Flp-In-T-REx-293 cells assessed as inhibition constant incubated for 1 hr. Format: cell-based.

The target in assay [7] is T7, Adenosine receptor A3 (Homo sapiens) (UniProt P0DMS8).
T7 sequence (whole entry): T1 sequence (P0DMS8 whole entry)
Description: Displacement of […] from human A3AR expressed in HEK cells at 10 uM relative to control. Type of assay: cell-based.

The target in assay [8] is T4, 5-hydroxytryptamine receptor 2A. The following applies: Flp-In-T-REx-293, time 1.0 hrs.
For assay [9], the target named is T2, 5-hydroxytryptamine receptor 2C (Homo sapiens). The following applies: Flp-In-T-REx-293, filed as antagonist, time 1.0 hrs.
Assay [10] concerns the target T6, 5-hydroxytryptamine receptor 2C. Description: Binding affinity to 5HT2C receptor (unknown origin) assessed as inhibition constant.
The target of assay [11] is T4, 5-hydroxytryptamine receptor 2A. Description: Binding affinity to 5HT2A receptor (unknown origin) at 10 uM relative to control.
Assay [12] concerns the target T5, 5-hydroxytryptamine receptor 2B. Description: Binding affinity to 5HT2B receptor (unknown origin) assessed as inhibition constant.

Chain of Adenosine receptor A2a (Homo sapiens) (P29274 whole entry): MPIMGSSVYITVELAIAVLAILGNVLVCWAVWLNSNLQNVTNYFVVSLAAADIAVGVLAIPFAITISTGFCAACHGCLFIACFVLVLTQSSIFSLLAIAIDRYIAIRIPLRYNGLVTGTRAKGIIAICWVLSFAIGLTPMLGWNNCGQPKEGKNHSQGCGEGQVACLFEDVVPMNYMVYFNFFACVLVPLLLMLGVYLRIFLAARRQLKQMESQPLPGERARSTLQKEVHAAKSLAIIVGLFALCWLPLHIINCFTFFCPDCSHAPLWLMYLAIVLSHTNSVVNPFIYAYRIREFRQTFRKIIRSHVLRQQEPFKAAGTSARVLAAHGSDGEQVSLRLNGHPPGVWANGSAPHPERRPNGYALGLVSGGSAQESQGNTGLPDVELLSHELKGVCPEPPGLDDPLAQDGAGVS
T4 sequence (P28223 whole entry): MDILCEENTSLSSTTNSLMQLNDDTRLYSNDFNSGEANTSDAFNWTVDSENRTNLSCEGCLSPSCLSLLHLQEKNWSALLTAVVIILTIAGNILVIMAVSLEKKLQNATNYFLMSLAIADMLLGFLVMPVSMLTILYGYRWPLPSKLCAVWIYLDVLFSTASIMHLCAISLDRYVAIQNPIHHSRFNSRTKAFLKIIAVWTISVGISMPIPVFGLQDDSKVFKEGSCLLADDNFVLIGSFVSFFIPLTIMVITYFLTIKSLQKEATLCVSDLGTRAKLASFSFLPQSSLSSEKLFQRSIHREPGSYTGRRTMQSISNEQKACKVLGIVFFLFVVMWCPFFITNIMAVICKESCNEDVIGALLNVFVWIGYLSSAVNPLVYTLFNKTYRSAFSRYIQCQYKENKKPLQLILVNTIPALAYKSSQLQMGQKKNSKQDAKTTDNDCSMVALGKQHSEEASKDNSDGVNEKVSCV
T5 sequence (P41595 whole entry): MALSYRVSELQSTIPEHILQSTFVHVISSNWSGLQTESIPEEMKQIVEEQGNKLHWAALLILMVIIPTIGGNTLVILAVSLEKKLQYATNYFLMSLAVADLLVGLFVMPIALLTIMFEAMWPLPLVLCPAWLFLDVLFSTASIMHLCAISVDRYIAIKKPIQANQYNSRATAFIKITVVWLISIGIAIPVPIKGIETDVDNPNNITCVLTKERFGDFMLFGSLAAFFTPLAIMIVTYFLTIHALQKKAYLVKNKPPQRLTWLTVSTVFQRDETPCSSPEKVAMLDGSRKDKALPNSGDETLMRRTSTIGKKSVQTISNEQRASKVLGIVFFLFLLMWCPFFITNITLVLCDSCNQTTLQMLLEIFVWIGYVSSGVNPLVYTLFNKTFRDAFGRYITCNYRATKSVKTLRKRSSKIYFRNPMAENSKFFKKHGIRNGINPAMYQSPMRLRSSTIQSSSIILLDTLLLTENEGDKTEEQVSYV

Take `Nc1nc(I)nc2c1ncn2[C@H]1[C@H](O)[C@H](O)[C@]2(CCl)C[C@H]12`: the Ki is 390 nM at Adenosine receptor A3 and 147 nM at Adenosine receptor A1. Moreover, the Activity in assay [1] was 12%; in assay [2], 0%; in assay [3], 11%.

For `CCOC(=O)[C@@]12C[C@@H]1[C@@H](n1cnc3c(NC(C4CCCC4)C4CCCC4)nc(Cl)nc31)[C@H](O)[C@@H]2O`, the values for the Activity in assay [4] and in assay [2] (filed as antagonist) were -22% and 42%, respectively. The values for the Ki (at Adenosine receptor A3; in assay [5]; in assay [6] (read-out: Ki)) were 9720 nM, 239 nM and 139 nM, respectively.

Take `COCCN(CCOC)C(=O)[C@]12C[C@H]1[C@H](n1cnc3c(N)nc(Cl)nc31)[C@@H](O)[C@H]2O` (single isomer, unassigned): the Activity in assay [7] (filed as agonist) was determined as 51%; in assay [1] it was 12%; in [2], 3%; in assay [3], 36%.

In the case of `O[C@H]1[C@H](n2cnc3c(NC(C4CC4)C4CC4)nc(Cl)nc32)[C@H]2C[C@@]2(CF)[C@H]1O`, the results for the Activity in [4] (filed as agonist), in assay [1] (filed as antagonist) and in [2] were 55%, 47% and 14%, respectively. The Ki at Adenosine receptor A3 was determined as 3700 nM; at Adenosine receptor A1 it was 5.95 nM.

Take `OC[C@@]12C[C@@H]1[C@@H](n1cnc3c(N[C@H](C4CCC4)C4CC4)nc(I)nc31)[C@H](O)[C@@H]2O`: the figures for the Activity in assay [4] (filed as agonist), in assay [7] and in assay [2] were 50%, 34% and 29%, respectively. For the same compound, the pKb is below 5 in [8] and 6.54 in assay [9]. Also, the Ki at Adenosine receptor A1 is 42.7 nM; in [6] (read-out: Ki) it was 670 nM; in [6] (read-out: pKi (converted)) it was 603 nM.

For `CSC[C@@]12C[C@@H]1[C@@H](n1cnc3c(NC(C4CC4)C4CC4)nc(Cl)nc31)[C@H](O)[C@@H]2O`, the values for the Ki (on Adenosine receptor A3; on Adenosine receptor A1; in assay [6] (read-out: Ki)) were 932 nM, 63.2 nM and 772 nM, respectively. The Activity in [2] was determined as 19%.

`OC[C@@]12C[C@@H]1[C@@H](n1cnc3c(NC(C4CCCCC4)C4CCCCC4)nc(Cl)nc31)[C@H](O)[C@@H]2O`: the Activity in [4] was determined as 7%; in [2] (filed as antagonist) it was 47%. Moreover, at Adenosine receptor A3, the Ki came to 16600 nM.

For `COCCN(CCOC)C(=O)[C@]12C[C@H]1[C@H](n1cnc3c(NC(C4CC4)C4CC4)nc(Cl)nc31)[C@@H](O)[C@H]2O` (single isomer, unassigned), the Activity came to 34% in assay [4], 30% in assay [7], 38% in assay [1] and 0% in [2].

As to `OC[C@@]12C[C@@H]1[C@@H](n1cnc3c(NC(C4CCC4)C4CCC4)ncnc31)[C@H](O)[C@@H]2O`, the figures for the Ki in assay [10] and in assay [12] were 1020 nM and 186 nM, respectively. Moreover, the Activity in assay [11] worked out at 18%.

As for `CC(C)[C@@H](Nc1nc(I)nc2c1ncn2[C@H]1[C@H](O)[C@H](O)[C@]2(CO)C[C@H]12)C1CC1`, the Activity in assay [4] (filed as agonist) amounted to 60%; in assay [2] it was 7%. Besides, the Ki on Adenosine receptor A3 worked out at 11700 nM; in assay [5], 81.9 nM; at Adenosine receptor A1, 30.7 nM; in assay [6] (read-out: Ki), 904 nM.

In the case of `Nc1nc(I)nc2c1ncn2[C@H]1[C@H](O)[C@H](O)[C@]2(CO)C[C@H]12`, the Activity in [1] is -38%; in assay [2] it was -27%; in assay [3], -3%.

Turning to `OC[C@@]12C[C@@H]1[C@@H](n1cnc3c(NC(C4CCC4)C4CCC4)nc(Cl)nc31)[C@H](O)[C@@H]2O`, the Ki in assay [10] was found to be 368 nM. In addition, the Activity in assay [11] was 8%.

Turning to `NC[C@H]1O[C@@H](n2cnc3c(N[C@H](C4CCC4)C4CC4)nc(I)nc32)[C@H](O)[C@@H]1O`, the Activity was 39% in assay [4], 56% in assay [7] (filed as agonist), -1% in [1] and 9% in [2]. The values for the Ki (in assay [5]; at Adenosine receptor A1) were 178 nM and 147 nM, respectively.

As to `CSC[C@@]12C[C@@H]1[C@@H](n1cnc3c(NC(C4CC4)C4CC4)nc(I)nc31)[C@H](O)[C@@H]2O`, the Activity in assay [4] (filed as agonist) worked out at 40%; in assay [7] (filed as agonist), 62%; in [2], 16%. In addition, the values for the Ki (in [5]; on Adenosine receptor A1; in assay [6] (read-out: Ki)) were 522 nM, 466 nM and 493 nM, respectively.

Take `CCOC(=O)[C@@]12C[C@@H]1[C@@H](n1cnc3c(NC(C4CCC4)C4CCC4)nc(Cl)nc31)[C@H](O)[C@@H]2O`: the values for the Ki in assay [10] and in assay [12] were 351 nM and 136 nM, respectively. Further, in [11], the Activity is 35%.

Consider `OC[C@@]12C[C@@H]1[C@@H](n1cnc3c(NC(C4CC4)C4CC4)nc(I)nc31)[C@H](O)[C@@H]2O`, for which the Activity was found to be 63% in assay [4] (filed as agonist) and 35% in assay [2]. The Ki on Adenosine receptor A3 worked out at 7810 nM; on Adenosine receptor A1, 13.4 nM; in assay [6] (read-out: Ki) it was 249 nM.

For the compound `O[C@@H]1[C@H](O)[C@@H]2C[C@@H]2[C@H]1n1cnc2c(NC(C3CCCC3)C3CCCC3)nc(Cl)nc21`, the Activity in [4] is 24%; in assay [2], 22%.

Regarding `CSC[C@@]12C[C@@H]1[C@@H](n1cnc3c(N)nc(I)nc31)[C@H](O)[C@@H]2O`, the results for the Ki on Adenosine receptor A3 and on Adenosine receptor A1 were 92.5 nM and 1350 nM, respectively. Besides, the Activity was found to be 12% in assay [1], 0% in assay [2] and 12% in assay [3].

On to `OC[C@H]1O[C@@H](n2cnc3c(N[C@H](C4CCC4)C4CC4)nc(I)nc32)[C@H](O)[C@@H]1O`, for which the Activity is 72% in assay [4] (filed as agonist); 34% in [7]; -1% in assay [1]; 6% in assay [2]; 44% in assay [3] (filed as antagonist). On Adenosine receptor A1, the Ki was 21.3 nM.

As for `Ic1nc(N[C@H](C2CCC2)C2CC2)c2nc[nH]c2n1`, the Ki in assay [5] amounted to 313 nM; on Adenosine receptor A1 it was 648 nM. For the same compound, the Activity in assay [1] was 5%; in assay [2], -10%.

On to `O[C@H]1[C@H](n2cnc3c(NC(C4CCC4)C4CCC4)ncnc32)[C@H]2C[C@@]2(CCl)[C@H]1O`, for which the Ki in assay [10] was found to be 1230 nM; in assay [12] it was 1090 nM. Moreover, the Activity in assay [11] is 11%.

Turning to `O[C@H]1[C@H](n2cnc3c(NC(C4CCC4)C4CCC4)nc(Cl)nc32)[C@H]2C[C@@]2(CCl)[C@H]1O`, the Ki in [10] is 908 nM. Further, in assay [11], the Activity turned out to be 28%.

In the case of `CCCCSC[C@@]12C[C@@H]1[C@@H](n1cnc3c(NC(C4CCCC4)C4CCCC4)nc(Cl)nc31)[C@H](O)[C@@H]2O`, the values for the Activity in assay [4], in [1] and in assay [2] were 8%, 27% and 22%, respectively. In addition, in [5], the Ki amounted to 549 nM.

Turning to `O[C@H]1[C@H](n2cnc3c(NC(C4CCCCC4)C4CCCCC4)nc(Cl)nc32)[C@H]2C[C@@]2(CCl)[C@H]1O`, the Activity in [4] was -9%. Moreover, the values for the Ki (on Adenosine receptor A3; in [6] (read-out: Ki)) were 9320 nM and 73.5 nM, respectively.
